From ChEMBL document CHEMBL3877316, “Synthesis of pharmacologically important naphthoquinones and anticancer activity of 2-benzyllawsone through DNA topoisomerase-II inhibition” (Bioorg Med Chem, 2017)

Tests used:
[1] = Antiproliferative activity against human FADU cells after 48 hrs by SRB assay; format: functional, cell-based
[2] = Antiproliferative activity against HEK293 cells after 48 hrs by SRB assay; format: cell-based; conditions: Homo sapiens, HEK293, 48 h
FaDu = experiment: Inhibition of topoisomerase-2 in human FADU cells at 2 times antiproliferative IC50 after 24 hrs by ELISA relative to control; format: cell-based
[3] = Antiproliferative activity against human A549 cells after 48 hrs by SRB assay; format: functional, cell-based; conditions: A549, 48 h
[4] = Antiproliferative activity against human DU145 cells after 48 hrs by SRB assay; format: functional, cell-based; conditions: DU-145, 48 h
[5] = Antiproliferative activity against human DLD1 cells after 48 hrs by SRB assay; format: functional, cell-based; conditions: DLD-1, 48 h
[6] = Antiproliferative activity against human MCF7 cells after 48 hrs by SRB assay; format: functional, cell-based; conditions: MCF7, 48 h

Structure (SMILES)	IC50 [1]	IC50 [2]	inhibition (FaDu)	IC50 [3]	IC50 [4]	IC50 [5]	IC50 [6]
CCOC(=O)COC1=C(CC(=O)OCC)C(=O)c2ccccc2C1=O	21.8 µM	> 150 µM	21.4%	21.1 µM	> 30 µM	> 30 µM	> 30 µM
CC1(C)CCC2=C(O1)c1ccccc1C(=O)C2=O [LAPACHONE]	–	25.3 µM	53.9%	–	–	–	–
COc1cc(COC2=CC(=O)c3ccccc3C2=O)cc(OC)c1OC	16.5 µM	> 150 µM	14.7%	18.9 µM	25.2 µM	> 30 µM	> 30 µM
CCOC(=O)COC1=CC(=O)c2ccccc2C1=O	19.7 µM	> 150 µM	16.8%	15.5 µM	> 30 µM	> 30 µM	> 30 µM
COc1cc([C@@H]2c3cc4c(cc3[C@@H](O[C@@H]3O[C@@H]5CO[C@@H](C)O[C@H]5[C@H](O)[C@H]3O)[C@H]3COC(=O)[C@H]23)OCO4)cc(OC)c1O [ETOPOSIDE]	16 µM	7.51 µM	51.7%	> 30 µM	10.6 µM	8.11 µM	> 30 µM
